# pKi: −log10 of the molar value. No end group written: not given here.
# Columns and labels:
# AKT = AKT (Homo sapiens, UniProt P31749); details: read-out: Ki, competitive inhibition of histone H2B phosphorylation by AKT; cited from earlier work
# VIPR1 = molecular target: T1, VIPR1 (Homo sapiens, UniProt P32241); experiment: cAMP Hunter cell line, HitHunter cAMP XS+ assay, agonist mode; type: cell-based; details: for % Activity / Mean RLU: VIPR1 cells, cAMP
# T1 sequence (P32241 31-457): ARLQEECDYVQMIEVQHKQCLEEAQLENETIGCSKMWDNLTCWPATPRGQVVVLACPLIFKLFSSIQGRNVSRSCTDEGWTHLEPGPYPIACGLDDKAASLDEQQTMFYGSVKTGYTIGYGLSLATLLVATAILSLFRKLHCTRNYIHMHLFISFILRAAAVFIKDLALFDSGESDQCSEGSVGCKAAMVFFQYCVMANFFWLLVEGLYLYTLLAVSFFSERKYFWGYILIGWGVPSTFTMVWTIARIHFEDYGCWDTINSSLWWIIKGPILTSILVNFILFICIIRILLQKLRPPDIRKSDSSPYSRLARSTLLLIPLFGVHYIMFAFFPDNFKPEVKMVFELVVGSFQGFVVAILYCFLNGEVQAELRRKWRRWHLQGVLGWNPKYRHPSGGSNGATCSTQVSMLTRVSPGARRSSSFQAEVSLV
# Experimental: (§1) Once it was established that the cells were healthy and growing normally, cells were passaged from flasks using cell dissociation reagent buffer and seeded into white walled clear bottom 384-well microplates for compound profiling. For profiling, cells were seeded at a density of 10,000 cells per well in a total volume of 20 μL and were allowed to adhere and recover overnight prior to compound addition. cAMP modulation was determined using the DiscoveRx HitHunter cAMP XS+ assay.
# (§2) For profiling compound in agonist mode, the cells were incubated in the presence of compound at 37° C. for 30 minutes. […] After appropriate compound incubation, assay signal was generated through incubation with DiscoverX lysis cocktail according to the manufacturers standard protocol. Dose curves were plotted using GraphPad Prism or Activity Base. Percentage activity is calculated using the following formula: % Activity=100%×(mean RLU of test sample−mean RLU of vehicle control)/(mean RLU of MAX control−mean RLU of vehicle control).
# VIPR2 = molecular target: T2, VIPR2 (Homo sapiens, UniProt P41587); experiment: as above; type: cell-based
# T2 sequence (P41587 24-438): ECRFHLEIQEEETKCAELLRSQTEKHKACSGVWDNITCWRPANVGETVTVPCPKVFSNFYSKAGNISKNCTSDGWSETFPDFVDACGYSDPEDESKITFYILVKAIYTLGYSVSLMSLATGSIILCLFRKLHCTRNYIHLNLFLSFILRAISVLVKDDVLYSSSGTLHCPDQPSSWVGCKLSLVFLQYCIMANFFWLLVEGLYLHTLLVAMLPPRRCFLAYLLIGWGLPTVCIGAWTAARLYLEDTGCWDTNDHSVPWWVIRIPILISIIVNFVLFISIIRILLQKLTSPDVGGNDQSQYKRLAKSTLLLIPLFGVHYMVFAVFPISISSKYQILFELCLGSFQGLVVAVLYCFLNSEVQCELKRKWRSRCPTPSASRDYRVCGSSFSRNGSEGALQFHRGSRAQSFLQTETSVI
# Experimental: as §1, §2
# CRF2α = molecular target: T3, CRF2α (Homo sapiens, UniProt Q13324); details: cited from earlier work
# T3 sequence (Q13324 1-411): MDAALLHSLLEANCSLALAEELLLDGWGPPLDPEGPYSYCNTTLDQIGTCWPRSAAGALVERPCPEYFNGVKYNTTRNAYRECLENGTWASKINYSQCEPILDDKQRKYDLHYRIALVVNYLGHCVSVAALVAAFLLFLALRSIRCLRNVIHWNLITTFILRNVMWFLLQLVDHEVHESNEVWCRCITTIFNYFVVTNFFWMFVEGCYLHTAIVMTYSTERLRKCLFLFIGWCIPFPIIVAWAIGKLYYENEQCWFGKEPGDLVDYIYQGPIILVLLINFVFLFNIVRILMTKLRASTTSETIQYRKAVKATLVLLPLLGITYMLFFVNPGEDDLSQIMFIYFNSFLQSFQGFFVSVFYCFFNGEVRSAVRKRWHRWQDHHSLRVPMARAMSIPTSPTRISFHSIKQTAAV
# CRF2β = molecular target: T4, CRF2β (Homo sapiens, UniProt Q13324); details: cited from earlier work
# T4 sequence (Q13324 1-438 isoform Q13324-2): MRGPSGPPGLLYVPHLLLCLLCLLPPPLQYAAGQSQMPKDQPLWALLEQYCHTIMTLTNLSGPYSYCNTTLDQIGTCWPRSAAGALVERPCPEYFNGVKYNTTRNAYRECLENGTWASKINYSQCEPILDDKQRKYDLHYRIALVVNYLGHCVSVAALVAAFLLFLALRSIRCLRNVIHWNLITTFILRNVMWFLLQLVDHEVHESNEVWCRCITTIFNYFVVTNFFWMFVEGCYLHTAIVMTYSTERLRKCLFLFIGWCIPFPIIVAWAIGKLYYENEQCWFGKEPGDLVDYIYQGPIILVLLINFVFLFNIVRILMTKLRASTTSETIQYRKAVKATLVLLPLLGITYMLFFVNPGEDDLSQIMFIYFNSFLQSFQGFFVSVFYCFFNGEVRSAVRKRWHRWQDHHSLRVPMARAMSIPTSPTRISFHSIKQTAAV
# AKT, sequence (P31749 whole entry): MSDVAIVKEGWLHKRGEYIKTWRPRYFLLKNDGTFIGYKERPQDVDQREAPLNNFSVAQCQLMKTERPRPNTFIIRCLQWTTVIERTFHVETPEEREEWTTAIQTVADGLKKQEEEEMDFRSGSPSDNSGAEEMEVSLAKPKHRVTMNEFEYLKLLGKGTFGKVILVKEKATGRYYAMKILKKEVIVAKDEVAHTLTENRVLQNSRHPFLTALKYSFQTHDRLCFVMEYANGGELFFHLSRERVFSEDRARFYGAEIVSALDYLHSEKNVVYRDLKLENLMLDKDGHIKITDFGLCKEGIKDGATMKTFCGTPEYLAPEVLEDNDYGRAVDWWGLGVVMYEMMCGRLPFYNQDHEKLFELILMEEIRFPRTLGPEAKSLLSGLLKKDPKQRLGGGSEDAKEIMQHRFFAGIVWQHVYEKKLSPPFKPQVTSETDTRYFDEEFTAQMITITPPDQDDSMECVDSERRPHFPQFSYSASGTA
molecule,measurement,setting,value
5-TMR-ARKRERTYSFGHHA ({5‑TMR}-ARKRERTYSFGHHA),pKi,AKT,4.92
"CC[C@H](C)[C@H](NC(=O)[C@H]1CCC[C@@H]1NC(=O)[C@H](CC(N)=O)NC(=O)[C@H](CC(C)C)NC(=O)[C@H](Cc1ccc(O)cc1)NC(=O)[C@H]1CNC[C@@H]1NC(=O)[C@H](CCCCN)NC(=O)[C@@H](NC(=O)[C@H]1CCC[C@@H]1NC(=O)[C@H](CC(C)C)NC(=O)[C@H](CCC(N)=O)NC(=O)[C@H](CCCCN)NC(=O)[C@H]1CNC[C@@H]1NC(=O)[C@H](CC(C)C)NC(=O)[C@H](CCCNC(=N)N)NC(=O)[C@H]1CCC[C@@H]1NC(=O)[C@H](Cc1ccc(O)cc1)NC(=O)[C@H](CC(N)=O)NC(=O)[C@H](CC(=O)O)NC(=O)[C@@H](NC(=O)[C@H](Cc1ccccc1)NC(=O)[C@@H](NC(=O)[C@H](C)NC(=O)[C@H](CC(=O)O)NC(=O)[C@H](CO)NC(=O)[C@@H](N)Cc1c[nH]cn1)C(C)C)[C@@H](C)O)C(C)C)C(=O)N[C@@H](CC(C)C)C(=O)N[C@@H](CC(N)=O)C(N)=O [Compound 8, HSDAVFTDNYXRLZKQLXVKZYLNXILN]",% Activity,VIPR1; 1.03E−07 M compound,91.7%
same,% Activity,VIPR1; 1.03E−08 M compound,1.5%
same,Mean RLU,VIPR1; 1.03E−08 M compound,13700.0 RLU
same,% Activity,VIPR1; 1.03E−09 M compound,−1.4%
same,Mean RLU,VIPR1; 1.03E−09 M compound,13500.0 RLU
same,% Activity,VIPR1; 1.03E−10 M compound,−2.9%
same,Mean RLU,VIPR1; 1.03E−10 M compound,9960.0 RLU
same,% Activity,VIPR1; 1.03E−11 M compound,−1.5%
same,Mean RLU,VIPR1; 1.03E−11 M compound,10500.0 RLU
same,% Activity,VIPR1; 1.03E−12 M compound,−1.7%
same,Mean RLU,VIPR1; 1.03E−12 M compound,10340.0 RLU
same,% Activity,VIPR1; 5.03E−07 M compound,99.5%
same,% Activity,VIPR1; 5.03E−08 M compound,83.9%
same,% Activity,VIPR1; 5.03E−09 M compound,1.2%
same,Mean RLU,VIPR1; 5.03E−09 M compound,13200.0 RLU
same,% Activity,VIPR1; 5.03E−10 M compound,−2.2%
same,Mean RLU,VIPR1; 5.03E−10 M compound,9520.0 RLU
same,activation of VIPR1,VIPR1; FIG. 3,fully activate VIPR1
same,interaction with VIPR2,VIPR2,does not interact substantially with VIPR2
same,activation of VIPR2,VIPR2; FIG. 3,not activate VIPR2
Astressin,pKi,CRF2α,8.82
same,pKi,CRF2β,9.00
